In the kinase profiling compilation of Christmann-Franck et al. (2016):

How the values were obtained:
[1] = target: PHKG1 (human) (UniProt Q16816); assay: Caliper, Mobility shift assay off-chip
[2] = target: FLT1 (human) (UniProt P17948); assay: Caliper, Mobility shift assay off-chip
[3] = target: PRKCD (human) (UniProt Q05655); assay: Caliper, Mobility shift assay off-chip
[4] = target: PRKAA1 (human) (UniProt Q13131); assay: Caliper, Mobility shift assay off-chip
[5] = target: EEF2K (human) (UniProt O00418); assay: Caliper, Mobility shift assay off-chip
[6] = target: IRAK4 (human) (UniProt Q9NWZ3); assay: Caliper, Mobility shift assay off-chip
[7] = target: PRKCG (human) (UniProt P05129); assay: Caliper, Mobility shift assay off-chip
[8] = target: SGK2 (human) (UniProt Q9HBY8); assay: Caliper, Mobility shift assay off-chip
[9] = target: CSK (human) (UniProt P41240); assay: Caliper, Mobility shift assay off-chip
[10] = target: BRSK1 (human) (UniProt Q8TDC3); assay: Caliper, Mobility shift assay off-chip
[11] = target: MAPK12 (human) (UniProt P53778); assay: Caliper, Mobility shift assay off-chip
[12] = target: ITK (human) (UniProt Q08881); assay: Caliper, Mobility shift assay off-chip
[13] = target: PDPK1 (human) (UniProt O15530); assay: Caliper, Mobility shift assay off-chip
[14] = target: PRKACB (human) (UniProt P22694); assay: Caliper, Mobility shift assay off-chip
[15] = target: DCLK2 (human) (UniProt Q8N568); assay: Caliper, Mobility shift assay off-chip
[16] = target: PIM1 (human) (UniProt P11309); assay: Caliper, Mobility shift assay off-chip
[17] = target: TBK1 (human) (UniProt Q9UHD2); assay: Caliper, Mobility shift assay off-chip
[18] = target: PDGFRA (human) (UniProt P16234); assay: Caliper, Mobility shift assay off-chip
[19] = target: PTK2B (human) (UniProt Q14289); assay: Caliper, Mobility shift assay off-chip
[20] = target: CDC7 (human) (UniProt O00311); assay: Caliper, Mobility shift assay off-chip
[21] = target: AURKB (human) (UniProt Q96GD4); assay: Caliper, Mobility shift assay off-chip
[22] = target: ALK NPM1 (human) (UniProt P06748+Q9UM73); assay: Caliper, Mobility shift assay off-chip
[23] = target: SRMS (human) (UniProt Q9H3Y6); assay: Caliper, Mobility shift assay off-chip
[24] = target: NEK2 (human) (UniProt P51955); assay: Caliper, Mobility shift assay off-chip
[25] = target: CAMK4 (human) (UniProt Q16566); assay: Caliper, Mobility shift assay off-chip
[26] = target: TNK1 (human) (UniProt Q13470); assay: Caliper, Mobility shift assay off-chip
[27] = target: FYN (human) (UniProt P06241); assay: Caliper, Mobility shift assay off-chip
[28] = target: PKN1 (human) (UniProt Q16512); assay: IMAP-FP
[29] = target: EIF2AK2 (human) (UniProt P19525); assay: IMAP-FP
[30] = target: EIF2AK3 (human) (UniProt Q9NZJ5); assay: IMAP-FP
[31] = target: PLK2 (human) (UniProt Q9NYY3); assay: IMAP-FP
[32] = target: SRPK1 (human) (UniProt Q96SB4); assay: IMAP-FP
[33] = target: HIPK3 (human) (UniProt Q9H422); assay: Caliper, Mobility shift assay off-chip
[34] = target: MARK2 (human) (UniProt Q7KZI7); assay: Caliper, Mobility shift assay off-chip

EEF2K (human), sequence (O00418 whole entry, looked up): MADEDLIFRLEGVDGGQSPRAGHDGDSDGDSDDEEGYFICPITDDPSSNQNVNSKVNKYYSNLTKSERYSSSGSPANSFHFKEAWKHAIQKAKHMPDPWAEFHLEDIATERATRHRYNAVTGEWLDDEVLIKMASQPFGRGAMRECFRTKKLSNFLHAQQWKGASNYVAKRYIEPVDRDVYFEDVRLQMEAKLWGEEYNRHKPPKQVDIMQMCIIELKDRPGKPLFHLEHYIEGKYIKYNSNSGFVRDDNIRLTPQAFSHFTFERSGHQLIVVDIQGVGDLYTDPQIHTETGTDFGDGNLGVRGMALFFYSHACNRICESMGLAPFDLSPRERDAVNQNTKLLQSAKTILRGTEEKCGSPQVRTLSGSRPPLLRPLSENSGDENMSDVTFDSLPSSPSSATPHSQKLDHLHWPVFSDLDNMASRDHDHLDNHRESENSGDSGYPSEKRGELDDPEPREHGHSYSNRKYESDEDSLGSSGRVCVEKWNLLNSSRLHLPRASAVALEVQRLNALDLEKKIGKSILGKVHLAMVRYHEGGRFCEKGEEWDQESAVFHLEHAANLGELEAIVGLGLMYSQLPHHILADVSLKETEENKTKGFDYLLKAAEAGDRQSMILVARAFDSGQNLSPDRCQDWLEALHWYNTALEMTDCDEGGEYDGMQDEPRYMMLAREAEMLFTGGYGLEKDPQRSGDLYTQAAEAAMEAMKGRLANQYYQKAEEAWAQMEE
TBK1 (human), sequence (Q9UHD2 whole entry, looked up): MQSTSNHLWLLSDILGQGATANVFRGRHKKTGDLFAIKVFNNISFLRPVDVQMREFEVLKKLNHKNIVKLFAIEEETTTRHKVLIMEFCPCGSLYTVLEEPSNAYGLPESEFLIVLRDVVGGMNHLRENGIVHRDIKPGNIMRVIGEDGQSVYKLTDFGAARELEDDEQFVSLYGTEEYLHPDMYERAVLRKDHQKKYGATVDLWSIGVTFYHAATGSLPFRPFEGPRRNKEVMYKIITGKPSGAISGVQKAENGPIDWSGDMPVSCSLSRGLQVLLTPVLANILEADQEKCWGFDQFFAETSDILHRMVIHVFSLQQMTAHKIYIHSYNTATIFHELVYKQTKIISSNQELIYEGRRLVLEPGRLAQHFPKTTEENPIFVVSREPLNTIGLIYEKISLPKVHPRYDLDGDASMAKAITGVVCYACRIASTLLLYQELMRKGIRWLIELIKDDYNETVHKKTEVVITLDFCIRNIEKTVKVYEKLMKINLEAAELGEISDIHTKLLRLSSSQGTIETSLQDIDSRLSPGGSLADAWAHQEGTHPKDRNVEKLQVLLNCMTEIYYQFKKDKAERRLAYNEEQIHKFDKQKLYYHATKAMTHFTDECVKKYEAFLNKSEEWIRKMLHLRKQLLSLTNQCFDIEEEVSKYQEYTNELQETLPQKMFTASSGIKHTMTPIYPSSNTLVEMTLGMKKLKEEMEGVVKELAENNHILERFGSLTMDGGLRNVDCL
NEK2 (human), sequence (P51955 whole entry, looked up): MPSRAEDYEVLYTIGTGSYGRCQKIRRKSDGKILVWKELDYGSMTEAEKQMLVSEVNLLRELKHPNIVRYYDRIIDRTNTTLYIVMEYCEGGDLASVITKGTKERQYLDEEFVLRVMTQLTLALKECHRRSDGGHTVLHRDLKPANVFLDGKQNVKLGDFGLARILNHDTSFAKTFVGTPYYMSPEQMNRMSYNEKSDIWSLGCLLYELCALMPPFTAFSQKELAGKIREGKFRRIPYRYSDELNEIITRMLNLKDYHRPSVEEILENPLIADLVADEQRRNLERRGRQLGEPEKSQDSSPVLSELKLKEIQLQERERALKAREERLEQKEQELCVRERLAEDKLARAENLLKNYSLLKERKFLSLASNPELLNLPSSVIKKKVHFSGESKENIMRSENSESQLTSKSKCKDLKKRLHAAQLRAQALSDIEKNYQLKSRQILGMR
PHKG1 (human), sequence (Q16816 whole entry, looked up): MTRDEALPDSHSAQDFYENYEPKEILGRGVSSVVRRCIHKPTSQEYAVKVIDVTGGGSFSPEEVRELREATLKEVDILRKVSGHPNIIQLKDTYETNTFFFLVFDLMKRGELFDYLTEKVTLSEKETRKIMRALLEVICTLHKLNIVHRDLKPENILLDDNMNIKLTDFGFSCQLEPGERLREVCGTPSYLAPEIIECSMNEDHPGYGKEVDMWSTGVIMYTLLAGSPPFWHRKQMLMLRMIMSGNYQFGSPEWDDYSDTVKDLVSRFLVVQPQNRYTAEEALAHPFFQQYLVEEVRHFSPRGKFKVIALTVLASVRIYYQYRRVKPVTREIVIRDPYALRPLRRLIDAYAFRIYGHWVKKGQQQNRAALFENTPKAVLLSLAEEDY
PDPK1 (human), sequence (O15530 whole entry, looked up): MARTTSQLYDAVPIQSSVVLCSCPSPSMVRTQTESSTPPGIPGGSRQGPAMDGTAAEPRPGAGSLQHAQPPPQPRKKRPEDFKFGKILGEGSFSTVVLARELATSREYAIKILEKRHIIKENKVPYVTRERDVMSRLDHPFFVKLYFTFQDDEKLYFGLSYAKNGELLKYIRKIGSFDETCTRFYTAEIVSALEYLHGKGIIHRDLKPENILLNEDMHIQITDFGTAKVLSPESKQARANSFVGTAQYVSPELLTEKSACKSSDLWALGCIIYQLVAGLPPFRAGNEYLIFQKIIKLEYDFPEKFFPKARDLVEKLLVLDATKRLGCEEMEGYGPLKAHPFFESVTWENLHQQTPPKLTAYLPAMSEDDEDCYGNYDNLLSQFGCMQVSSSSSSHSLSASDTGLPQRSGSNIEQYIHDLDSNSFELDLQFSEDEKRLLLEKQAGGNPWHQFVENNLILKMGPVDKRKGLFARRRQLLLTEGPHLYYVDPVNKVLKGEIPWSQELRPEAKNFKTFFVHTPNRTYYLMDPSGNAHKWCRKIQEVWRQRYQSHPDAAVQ
CDC7 (human), sequence (O00311 whole entry, looked up): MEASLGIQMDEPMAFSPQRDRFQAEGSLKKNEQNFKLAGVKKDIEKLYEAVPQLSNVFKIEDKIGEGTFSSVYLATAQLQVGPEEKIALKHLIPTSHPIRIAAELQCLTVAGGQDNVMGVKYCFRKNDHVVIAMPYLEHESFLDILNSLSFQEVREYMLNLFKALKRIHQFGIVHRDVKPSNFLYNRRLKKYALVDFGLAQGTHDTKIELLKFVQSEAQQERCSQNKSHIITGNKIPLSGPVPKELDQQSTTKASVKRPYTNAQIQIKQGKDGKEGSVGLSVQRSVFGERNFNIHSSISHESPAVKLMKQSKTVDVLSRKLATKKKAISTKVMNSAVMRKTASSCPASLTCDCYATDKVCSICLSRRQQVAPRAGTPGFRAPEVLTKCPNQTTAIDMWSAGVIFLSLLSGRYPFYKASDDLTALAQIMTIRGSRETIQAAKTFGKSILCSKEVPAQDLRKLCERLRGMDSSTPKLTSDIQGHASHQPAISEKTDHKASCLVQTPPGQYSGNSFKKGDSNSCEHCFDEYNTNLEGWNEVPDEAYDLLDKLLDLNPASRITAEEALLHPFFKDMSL
AURKB (human), sequence (Q96GD4 whole entry, looked up): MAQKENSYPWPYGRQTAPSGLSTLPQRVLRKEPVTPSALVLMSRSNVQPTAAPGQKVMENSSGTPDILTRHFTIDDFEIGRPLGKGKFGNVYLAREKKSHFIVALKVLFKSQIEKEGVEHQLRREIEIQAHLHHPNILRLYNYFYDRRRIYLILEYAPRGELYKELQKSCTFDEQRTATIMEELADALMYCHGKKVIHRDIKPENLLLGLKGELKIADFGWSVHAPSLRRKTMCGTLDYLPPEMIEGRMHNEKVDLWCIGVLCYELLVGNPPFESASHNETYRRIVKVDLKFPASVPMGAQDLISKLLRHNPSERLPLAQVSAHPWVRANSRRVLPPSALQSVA
ITK (human), sequence (Q08881 whole entry, looked up): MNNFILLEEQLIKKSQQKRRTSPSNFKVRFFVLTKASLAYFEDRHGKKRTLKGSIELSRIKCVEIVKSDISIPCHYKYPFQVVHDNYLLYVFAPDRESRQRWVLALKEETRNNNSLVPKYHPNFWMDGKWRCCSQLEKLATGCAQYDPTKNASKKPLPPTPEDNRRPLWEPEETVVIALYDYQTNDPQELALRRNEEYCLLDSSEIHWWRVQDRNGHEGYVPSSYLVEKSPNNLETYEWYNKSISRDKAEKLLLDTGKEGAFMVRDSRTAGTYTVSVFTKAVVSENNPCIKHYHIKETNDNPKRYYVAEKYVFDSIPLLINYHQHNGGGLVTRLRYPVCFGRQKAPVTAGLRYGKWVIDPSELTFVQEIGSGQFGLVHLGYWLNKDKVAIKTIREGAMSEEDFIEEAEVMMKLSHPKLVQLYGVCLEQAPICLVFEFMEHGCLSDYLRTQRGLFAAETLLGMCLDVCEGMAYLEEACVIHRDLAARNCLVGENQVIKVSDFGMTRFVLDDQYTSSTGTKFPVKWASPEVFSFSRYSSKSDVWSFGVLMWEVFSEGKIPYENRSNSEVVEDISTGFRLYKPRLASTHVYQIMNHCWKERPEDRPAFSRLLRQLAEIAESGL
IRAK4 (human), sequence (Q9NWZ3 whole entry, looked up): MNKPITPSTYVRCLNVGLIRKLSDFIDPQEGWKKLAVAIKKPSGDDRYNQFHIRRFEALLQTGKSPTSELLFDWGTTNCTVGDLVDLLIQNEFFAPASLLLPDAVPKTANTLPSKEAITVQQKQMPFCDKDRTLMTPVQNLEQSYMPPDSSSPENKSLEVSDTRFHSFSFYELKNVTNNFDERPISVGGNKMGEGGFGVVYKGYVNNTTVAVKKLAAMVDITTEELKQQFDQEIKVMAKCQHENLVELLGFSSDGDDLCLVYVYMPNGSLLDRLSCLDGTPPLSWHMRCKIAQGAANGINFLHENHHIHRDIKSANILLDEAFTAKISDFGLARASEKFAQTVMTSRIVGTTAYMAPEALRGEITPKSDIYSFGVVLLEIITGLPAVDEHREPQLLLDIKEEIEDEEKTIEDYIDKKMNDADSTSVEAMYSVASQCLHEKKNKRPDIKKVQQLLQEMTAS

`CCN(CC)CCNC(=O)c1c(C)[nH]c(/C=C2\C(=O)Nc3ccc(F)cc32)c1C` was tested, and the inhibition ([1]; compound 0.2 µM) was 91.8%, the inhibition ([1]; compound 4.0 µM) was 96.9% and the inhibition ([2]; compound 0.2 µM) was 90.4%. For the same compound, the inhibition ([2]; compound 4.0 µM) was 103%, the inhibition ([3]; compound 0.2 µM) was 0.9% and the inhibition ([3]; compound 4.0 µM) was 48.4%. It also gave an inhibition ([4]; compound 0.2 µM) of 62.6%, an inhibition ([4]; compound 4.0 µM) of 98.7% and an inhibition ([5]; compound 0.2 µM) of 2.7%. It also gave an inhibition ([5]; compound 4.0 µM) of 4%, an inhibition ([6]; compound 0.2 µM) of 35.6% and an inhibition ([6]; compound 4.0 µM) of 90.4%. For the same compound, the inhibition ([7]; compound 0.2 µM) was 0.1%, the inhibition ([7]; compound 4.0 µM) was 38.9% and the inhibition ([8]; compound 0.2 µM) was 5.5%. It also gave an inhibition ([8]; compound 4.0 µM) of 57.6%, an inhibition ([9]; compound 0.2 µM) of 1.2% and an inhibition ([9]; compound 4.0 µM) of 17.6%. The inhibition ([10]; compound 0.2 µM) was 40%, the inhibition ([10]; compound 4.0 µM) was 86.6% and the inhibition ([11]; compound 0.2 µM) was -4.2%. The inhibition ([11]; compound 4.0 µM) was -6.2%, the inhibition ([12]; compound 0.2 µM) was 93.3% and the inhibition ([12]; compound 4.0 µM) was 101%. For the same compound, the inhibition ([13]; compound 0.2 µM) was -0.3%, the inhibition ([13]; compound 4.0 µM) was 36.5% and the inhibition ([14]; compound 0.2 µM) was -0.1%. For the same compound, the inhibition ([14]; compound 4.0 µM) was 48.3%, the inhibition ([15]; compound 0.2 µM) was 5.2% and the inhibition ([15]; compound 4.0 µM) was 49.8%. The inhibition ([16]; compound 0.2 µM) was -0.2%, the inhibition ([16]; compound 4.0 µM) was 19.2% and the inhibition ([17]; compound 0.2 µM) was 28.1%. For the same compound, the inhibition ([17]; compound 4.0 µM) was 87.5%, the inhibition ([18]; compound 0.2 µM) was 100% and the inhibition ([19]; compound 0.2 µM) was 72.4%. For the same compound, the inhibition ([19]; compound 4.0 µM) was 101%, the inhibition ([20]; compound 0.2 µM) was 0.9% and the inhibition ([20]; compound 4.0 µM) was 4.9%. For the same compound, the inhibition ([21]; compound 0.2 µM) was 46%, the inhibition ([21]; compound 4.0 µM) was 90% and the inhibition ([22]; compound 0.2 µM) was 76%. For the same compound, the inhibition ([22]; compound 4.0 µM) was 100%, the inhibition ([23]; compound 0.2 µM) was -0.6% and the inhibition ([23]; compound 4.0 µM) was 24%. The inhibition ([24]; compound 0.2 µM) was 8.3%, the inhibition ([24]; compound 4.0 µM) was 49.2% and the inhibition ([25]; compound 0.2 µM) was 15.7%. The inhibition ([25]; compound 4.0 µM) was 80.8%, the inhibition ([26]; compound 0.2 µM) was 32.1% and the inhibition ([26]; compound 4.0 µM) was 88.4%. The inhibition ([27]; compound 0.2 µM) was 45.3%, the inhibition ([27]; compound 4.0 µM) was 93.3% and the inhibition ([28]; compound 0.2 µM) was -2.2%. For the same compound, the inhibition ([28]; compound 4.0 µM) was 57.1%, the inhibition ([29]; compound 0.2 µM) was 29.1% and the inhibition ([29]; compound 4.0 µM) was 88.4%. The inhibition ([30]; compound 0.2 µM) was -15%, the inhibition ([30]; compound 4.0 µM) was -5.4% and the inhibition ([31]; compound 0.2 µM) was -4.7%. The inhibition ([31]; compound 4.0 µM) was 4.2%, the inhibition ([32]; compound 0.2 µM) was -0.7% and the inhibition ([32]; compound 4.0 µM) was 39.6%.

`Cc1ccc(Nc2nccc(N(C)c3ccc4c(C)n(C)nc4c3)n2)cc1S(N)(=O)=O` gave an inhibition ([1]; compound 0.02 µM) of -1.4%, an inhibition ([1]; compound 0.2 µM) of -1.9% and an inhibition ([2]; compound 0.02 µM) of 66.5%. For the same compound, the inhibition ([2]; compound 0.2 µM) was 99.8%, the inhibition ([3]; compound 0.02 µM) was -1.6% and the inhibition ([3]; compound 0.2 µM) was -4.4%. It also gave an inhibition ([4]; compound 0.02 µM) of 8%, an inhibition ([4]; compound 0.2 µM) of -10.1% and an inhibition ([5]; compound 0.02 µM) of 2.9%. The inhibition ([5]; compound 0.2 µM) was 4.7%, the inhibition ([6]; compound 0.02 µM) was -4.3% and the inhibition ([6]; compound 0.2 µM) was -3.9%. The inhibition ([33]; compound 0.02 µM) was 2.3%, the inhibition ([33]; compound 0.2 µM) was 2.6% and the inhibition ([7]; compound 0.02 µM) was 4%. It also gave an inhibition ([7]; compound 0.2 µM) of -6.3%, an inhibition ([8]; compound 0.02 µM) of 5.5% and an inhibition ([8]; compound 0.2 µM) of -0.1%. For the same compound, the inhibition ([9]; compound 0.02 µM) was -4.8%, the inhibition ([9]; compound 0.2 µM) was -0.7% and the inhibition ([10]; compound 0.02 µM) was 5.3%. It also gave an inhibition ([10]; compound 0.2 µM) of 3.2%, an inhibition ([11]; compound 0.02 µM) of -6.3% and an inhibition ([11]; compound 0.2 µM) of -2.7%. It also gave an inhibition ([12]; compound 0.02 µM) of 7%, an inhibition ([12]; compound 0.2 µM) of 2% and an inhibition ([13]; compound 0.02 µM) of -5%. For the same compound, the inhibition ([13]; compound 0.2 µM) was -3.3%, the inhibition ([14]; compound 0.02 µM) was -1.5% and the inhibition ([14]; compound 0.2 µM) was -7.3%. It also gave an inhibition ([15]; compound 0.02 µM) of -1.2%, an inhibition ([15]; compound 0.2 µM) of -0.9% and an inhibition ([16]; compound 0.02 µM) of -4.2%. The inhibition ([16]; compound 0.2 µM) was 0.8%, the inhibition ([17]; compound 0.02 µM) was -0.2% and the inhibition ([17]; compound 0.2 µM) was -1.1%. The inhibition ([18]; compound 0.02 µM) was 65.6%, the inhibition ([18]; compound 0.2 µM) was 95.6% and the inhibition ([19]; compound 0.02 µM) was -0.4%. For the same compound, the inhibition ([19]; compound 0.2 µM) was 9.7%, the inhibition ([20]; compound 0.02 µM) was -1.5% and the inhibition ([20]; compound 0.2 µM) was -3.3%. The inhibition ([21]; compound 0.02 µM) was 2.7%, the inhibition ([21]; compound 0.2 µM) was 12.5% and the inhibition ([22]; compound 0.02 µM) was 2.8%. It also gave an inhibition ([22]; compound 0.2 µM) of 2.1%, an inhibition ([23]; compound 0.02 µM) of 1.1% and an inhibition ([23]; compound 0.2 µM) of 25.2%. The inhibition ([24]; compound 0.02 µM) was 5.4%, the inhibition ([24]; compound 0.2 µM) was 12% and the inhibition ([25]; compound 0.02 µM) was -2.8%. The inhibition ([25]; compound 0.2 µM) was -1.2%, the inhibition ([26]; compound 0.02 µM) was 1.8% and the inhibition ([26]; compound 0.2 µM) was 12.2%. The inhibition ([34]; compound 0.02 µM) was 9.3%, the inhibition ([34]; compound 0.2 µM) was 12% and the inhibition ([28]; compound 0.02 µM) was -20.5%. It also gave an inhibition ([28]; compound 0.2 µM) of -27.6%, an inhibition ([30]; compound 0.02 µM) of -15% and an inhibition ([30]; compound 0.2 µM) of -17%. For the same compound, the inhibition ([31]; compound 0.02 µM) was 3.9%, the inhibition ([31]; compound 0.2 µM) was -0.8% and the inhibition ([32]; compound 0.02 µM) was -6.8%. It also gave an inhibition ([32]; compound 0.2 µM) of -3.6%.
